Test results reported in article PMC5392048 (Journal of Central Nervous System Disease, 2017).

Assays:
[1] = Unbound plasma concentration-time profile of the inhibitors in rats; assay type: in vivo, rat
P-gp = conditions: read-out: inhibitory concentration (Ki) for P-gp; cited from earlier work
OATP1B1 = conditions: read-out: Ki for the uptake transporters (OATP1B1); cited from earlier work

| time unbound plasma level maintained above Ki (Iu/Ki > 1) ([1]; elacridar 5 mg/kg iv, rat plasma, Ki for P-gp) | unbound peak plasma concentration relative to Ki for P-gp ([1]; elacridar 5 mg/kg iv, rat plasma, peak concentration) [fold] | maximum unbound concentration in plasma ([1]; rifampicin 30 mg/kg oral, rat) [µM] | Structure (SMILES) | Ki (P-gp) [nM] | Ki (OATP1B1) [nM] |
| --- | --- | --- | --- | --- | --- |
| ~ 15 hours | […] | – | COc1cc2c(cc1OC)CN(CCc1ccc(NC(=O)c3cccc4c(=O)c5cccc(OC)c5[nH]c34)cc1)CC2 [elacridar] | […] | – |
| – | – | 1.8 | CO[C@H]1/C=C/O[C@@]2(C)Oc3c(C)c(O)c4c(O)c(c(/C=N/N5CCN(C)CC5)c(O)c4c3C2=O)NC(=O)/C(C)=C\C=C\[C@H](C)[C@H](O)[C@@H](C)[C@@H](O)[C@@H](C)[C@H](OC(C)=O)[C@@H]1C [rifampicin] | – | 1100 |
